Laboratory results taken from patent US11724078B2, “Methods and systems for trans-tissue substance delivery using plasmaporation” (GOJO INDUSTRIES, INC., priority 2016, dated 2023).

Assay: Transport of substance applied to plasma treated area through open pores in the SC
Details: applied more than 5 minutes after plasma treatment

With Dextran [10 kDa Dextran] the “passage through the SC when applied after 5 minutes” value was “no longer passed through the SC”.
